Experimental data reported in patent US20090148398A1, “Naturally Occurring Volatile Attractant” (priority 2007, published 2009).
Entries after “also recorded” stand apart in the source; their conditions may differ.

Legend:
fire ant workers = assay: Fire ant alarm response; design: species or system Solenopsis invicta; conditions: in vivo
Description: Recently, the identity of a component of the fire ant alarm pheromone was determined to be 2-ethyl, 3,6-dimethyl pyrazine and the origin is the mandibular gland. […] In addition, 2-ethyl, 3,6-dimethyl pyrazine is commercially available as a mixture with the related compound, 2-ethyl, 3,5-dimethyl pyrazine.

S. invicta workers = assay: Y-tube olfactometer attraction bioassay; design: species or system Solenopsis invicta; conditions: in vivo
Source text: All ants used in these experiments were obtained from mature, queenright, monogyne Solenopsis invicta colonies excavated from a known monogyne site in Gainesville, Fla. The colonies were separated from the dirt and set up in the laboratory at least one month prior to the experiments. Laboratory colonies were maintained on a diet of crickets, water and 10% sucrose, and kept in plastic trays (83×53×13 cm) whose inner sides were painted with poly tetrafluoroethylene compositions (ADI Fluon, ICI Americas, Bayonne, NF) to prevent, escape of the ants. Based on the above, the attraction of S. invicta workers to various concentrations of the commercially available mixture of 2-ethyl, 3,5-dimethyl pyrazine and 2-ethyl, 3,6-dimethyl pyrazine was evaluated using a Y-tube olfactometer (FIG. 5). The olfactometer is composed of two 24/40 ground glass joints 14 each ring sealed to one of the arms 24 of an approximately 5 cm Y-tube 26 such that about 1 cm of each Y-tube extends through the male half of one of the ground glass joints. An approximately 5 cm piece of about 0.6 cm tubing is ring sealed about 1 cm into the female half of the ground glass joints. […] The number of ants entering the chamber with either the control or the treatment during the 3 min were counted and recorded. […]

| Compound | alarm response of fire ant workers (fire ant workers) | attraction of fire ant workers (conclusion of olfactometer experiment) (S. invicta workers) |
| --- | --- | --- |
| CCc1ncc(C)nc1C [2-ethyl, 3,5-dimethyl pyrazine] | elicit an alarm response |  |
| CCc1nc(C)cnc1C [2-ethyl, 3,6-dimethyl pyrazine] | elicited the full range of previously reported fire ant alarm behaviors; also recorded: fire ant workers responded better | attracts fire ant workers through space |
